Test results taken from article PMC7226963, “CCN-Based Therapeutic Peptides Modify Pancreatic Ductal Adenocarcinoma Microenvironment and Decrease Tumor Growth in Combination with Chemotherapy” (Cells, 2020).
Where two headings read alike, the source gives them in different places.

Columns and labels:
[1] = Gemcitabine and metabolites in tumor and plasma, with or without BLR200 (HPLC-MS); conditions: for Change of concentration (tumor/plasma ratio) in BLR200-treated mice: BLR200 10 µg/kg i.p. every other day from day 11, 4 treatments, gemcitabine 100 mg/kg i.v. single bolus day 17, 30 min and 1 h, n = 4, not statistically significant
Experimental: FC1199-bearing mice were treated i.p with BLR200 (10 µg/kg) from day 11 for a total of 4 treatments, every other day. On day 17, mice were treated with gemcitabine (100 mg/kg, i.v., single bolus). After 30 min and 1 h, plasma and tumors were collected for HPLC measurement of gemcitabine and metabolites. The plasma fraction added with 10 µL tetrahydrouridine (THU) 2.5 mg/mL was immediately separated by centrifugation at 3200× g for 15 min at 4 °C and stored at −20 °C until analysis. Tumors were immediately frozen in liquid nitrogen and stored at −20 °C until analysis. Extraction and analysis of gemcitabine (dFdc, dFdCTP, and dFdU) in tumors and plasma were carried out according to Bapiro et al. [27].
Briefly, tumors were weighted, spiked with 2′-deossicitidine as the internal standard (IS) at a final concentration of 1 ng/mg, and homogenized with ice-cold acetonitrile (ACN) 50% (v/v) containing THU 25 µg/mL in a Precellys Evolution homogenizer (Bertin Technologies S.A.S., Montigny-le-Bretonneux, France). Fifty microliters of homogenate were added with 200 µL ACN 50% (v/v), vortexed, and centrifuged at 13,200 rpm for 10 min at 4 °C. The supernatant was dried under N2 flux and the residue reconstituted with 100 µL of milliQ water. Concerning plasma, 25 µL were spiked with 1 µL of 10 µg/mL of IS and processed in the same way as tumors. The reconstituted tumors and plasma extracts were analyzed by injecting 2 µL in a UHPLC System connected to a LCMS-8060 (Shimadzu Scientific Instruments, Columbia, MD, USA) with a dual ion source. […] The mass spectrometer worked with an electrospray ionization source operating both in the negative and positive Multiple Reaction Monitoring mode, quantifying target ions m/z 264→59.25 for gemcitabine (positive), m/z 502→158.9 for dFdCTP (negative), m/z 263.1→220 for dFdU (negative), and m/z 228.1→112.05 for IS (positive). The lower limit of quantitation (LOQ) was 0.2 ng/mg for gemcitabine, 0.4 ng/mg for dFdU, and 0.5 ng/mg for dFdCTP in tumor samples, while it was 0.01 µg/mL for gemcitabine and 0.02 µg/mL for dFdU in plasma samples.

[2] = test system: FC1199 cells; experiment: FC1199 proliferation assay (crystal violet); type: cell-based, murine; conditions: Mus musculus, 72 h, 72 h incubation, mean and SD of two experiments, read-out: IC50 of gemcitabine on FC1199 cell proliferation
Experimental: FC1199 were seeded into 96-well plates in DMEM supplemented with 5% FCS. At 24 h after seeding, cells were exposed to increasing concentrations of BLR100 and BLR200 alone or in combination with increasing concentrations of gemcitabine. After a 72 h incubation, cells were fixed and stained with crystal violet solution (Sigma–Aldrich, Merck Life Science, Milano, Italy). The staining was eluted with a 1:1 ethanol/0.1 M sodium citrate solution, and the absorbance at 595 nm was measured. Each condition was tested in triplicate.

[3] = test system: FC1199 orthotopic tumors; experiment: Orthotopic FC1199 PDAC model: tumor burden (pancreas weight) and ascites; type: in vivo, C57BL/6 mice; conditions: peptides 4.5 µg/kg i.p. from day 11 or gemcitabine 40 mg/kg i.v.; n = 7
Experimental: Six- to eight-week old female C57BL/6 mice (Charles River Laboratories, Lecco, Italy) were maintained under specific-pathogen-free conditions, with constant temperature and humidity, and handled using aseptic procedures. FC1199 cells (5 × 10^4) were implanted orthotopically in the pancreas as described. Gemcitabine was administered i.v. at 40 mg/kg (see scheme in Figure 4A). Control groups received the same volume of vehicle. Mice were weighed every other day as a measure of drug toxicity. […] Tumor burden was evaluated at the end of the experiment, as pancreas weight. Peritoneal ascitic fluid was collected with a syringe and the volume recorded. Animals with a collectable peritoneal fluid (≥100 µL) were considered positive for ascites. Liver of mice were analyzed for macroscopic metastases, and no metastatic foci was detected in any group.

[4] = test system: KPC tumor; conditions: LSL-KrasG12D/+;LSL-Trp53R172H/+;Pdx-1-Cre (KPC) mice; cited from earlier work
Source text: (§1) CCN2 has recently been proposed as a target for PDAC therapy. […] FG-3019 (pamrevlumab) is currently in a Phase 3 clinical trial to evaluate its efficacy and safety as neoadjuvant treatment in combination with gemcitabine plus nab-paclitaxel in the treatment of locally advanced, unresectable pancreatic cancer.

[5] = test system: PANC-1 orthotopic; conditions: PANC-1 orthotopic preclinical model; cited from earlier work
Source text: as §1

Nc1ccn([C@@H]2O[C@H](COP(=O)(O)OP(=O)(O)OP(=O)(O)O)[C@@H](O)C2(F)F)c(=O)n1 [dFdCTP, gemcitabine triphosphate]
Concentration of the metabolite in tumors and plasma ([1]; gemcitabine 100 mg/kg i.v. single bolus, with or without BLR200 10 µg/kg, 30 min and 1 h, LOQ 0.5 ng/mg in tumor): undetectable in both groups

O=c1ccn([C@@H]2O[C@H](CO)[C@@H](O)C2(F)F)c(=O)[nH]1 [dFdU, 2′,2′-difluorodeoxyuridine]
Change of concentration (tumor/plasma ratio) in BLR200-treated mice [1]: small increase

Nc1ccn([C@@H]2O[C@H](CO)[C@@H](O)C2(F)F)c(=O)n1 [gemcitabine, Gemcitabine]
IC50 ([2]; gemcitabine alone, DMEM 5% FCS, absorbance 595 nm): 13.5 ± 4.6 nM
IC50 ([2]; gemcitabine with BLR100 20 nM): 13.2 ± 3.9 nM
IC50 ([2]; gemcitabine with BLR100 100 nM): 11.9 ± 3.7 nM
Effect on tumor growth as monotherapy, late start [3]: only a marginal effect on tumor growth
Change of concentration (tumor/plasma ratio) in BLR200-treated mice [1]: small increase

B1: FG-3019: CCN2-targeting mAb (antibody, chains of the INN, looked up, V domains shown)
VH: EGQLVQSGGGLVHPGGSLRLSCAGSGFTFSSYGMHWVRQAPGKGLEWVSGIGTGGGTYSTDSVKGRFTISRDNAKNSLYLQMNSLRAEDMAVYYCARGDYYGSGSFFDCWGQGTLVTVSS
VL: DIQMTQSPSSLSASVGDRVTITCRASQGISSWLAWYQQKPEKAPKSLIYAASSLQSGVPSRFSGSGSGTDFTLTISSLQPEDFATYYCQQYNSYPPTFGQGTKLEIK
Tumor response to gemcitabine [4]: enhanced tumor response
Tumor growth and metastasis [5]: inhibited tumor growth and metastasis
